Reference: ChEMBL document CHEMBL6182833, “Design, synthesis and antiviral evaluation of triazole-linked 7-hydroxycoumarin-monoterpene conjugates as inhibitors of RSV replication” (RSC Med Chem, 2025)
pEC50, pIC50: −log10 of the molar value. Calls of active or inactive are those of the source. No cut-off for these calls is given here.

Key:
Human orthopneumovirus [1] = assay: Antiviral activity against Respiratory syncytial virus type A infected in human HEp-2 cells assessed as inhibition of viral replication preincubated with cells followed by viral infection for 1 hr followed by virus washout and further incubated with compound for 6 days by ELISA method; type: functional, organism-based; details: for pIC50: read-out: IC50; for IC50: read-out: pIC50 (converted)
[2] = Selectivity index, ratio of CC50 for human HEp-2 cells to IC50 for Respiratory syncytial virus type B infected in human HEp-2 cells; type: cell-based; details: read-out: Ratio CC50/IC50
Human orthopneumovirus [3] = assay: Antiviral activity against Respiratory syncytial virus type B infected in human HEp-2 cells assessed as inhibition of viral replication preincubated with cells followed by viral infection for 1 hr followed by virus washout and further incubated with compound for 6 days by ELISA method; type: functional, organism-based; details: for pIC50: read-out: IC50; for IC50: read-out: pIC50 (converted)
[4] = Selectivity index, ratio of CC50 for human HEp-2 cells to IC50 for Respiratory syncytial virus type A infected in human HEp-2 cells; type: cell-based; details: read-out: Ratio CC50/IC50
HEp-2 = assay: Cytotoxicity against human HEp-2 cells assessed as cell growth inhibition measured after 24 hrs by MTT assay; type: functional
Human orthopneumovirus [5] = assay: Antiviral activity against Respiratory syncytial virus type A infected in human HEp-2 cells assessed as inhibition of viral replication preincubated with cells and simultaneously with virus and measured after 25 hrs by ELISA method; type: functional, organism-based
Human orthopneumovirus [6] = assay: Antiviral activity against Respiratory syncytial virus type A infected in human HEp-2 cells assessed as inhibition of viral replication preincubated with cells followed by compound washout followed by viral infection and measured after 25 hrs by ELISA method; type: functional, organism-based

| Structure (SMILES) | pIC50 (Human orthopneumovirus [1]) | IC50 (Human orthopneumovirus [1]) | selectivity ratio [2] | pIC50 (Human orthopneumovirus [3]) | selectivity ratio [4] | CC50 (HEp-2) | IC50 (Human orthopneumovirus [3]) | Activity (Human orthopneumovirus [5]) | Activity (Human orthopneumovirus [6]) | pEC50 (Human orthopneumovirus [3]) |
| --- | --- | --- | --- | --- | --- | --- | --- | --- | --- | --- |
| CC1(C)[C@@H]2CC=C(COc3ccc4c5c(c(=O)oc4c3)CCCC5)[C@H]1C2 | 5.29 | 6.17 µM | 78.2 | 5.31 | 77 | 380 µM | – | – | – | – |
| CC(C)CCCC(C)CCn1cc(COc2ccc3c(-c4ccccc4)cc(=O)oc3c2)nn1 (stereo not drawn) | 5.39 | 1.66 µM | 2.8 | 5.28 | 3.5 | 14.6 µM | 0.229 µM | – | – | – |
| CC(C)=CCCC(C)=CCn1cc(COc2ccc3c4c(c(=O)oc3c2)CCCC4)nn1 | 6.34 | 0.457 µM | 233 | 5.92 | 605 | 279 µM | 1.2 µM | inactive | – | – |
| CC1(C)[C@@H]2CC=C(Cn3cc(COc4ccc5c6c(c(=O)oc5c4)CCCC6)nn3)[C@H]1C2 | 5.39 | 4.07 µM | 7.2 | 5.46 | 6.3 | 25.5 µM | – | – | – | – |
| Cc1cc(=O)oc2cc(OCc3cn(Cc4ccc(C(C)C)cc4)nn3)ccc12 | 5.66 | – | 6.3 | 5.49 | 9 | 20 µM | – | – | – | – |
| CC(C)CCCC(C)CCn1cc(COc2ccc3c4c(c(=O)oc3c2)CCC4)nn1 (stereo not drawn) | 5.77 | 4.07 µM | 1150 | 6.64 | 160 | 264 µM | 5.25 µM | Weak_effect | Weak_effect | – |
| Cc1cc(=O)oc2cc(OCc3cn(CCC(C)CCCC(C)C)nn3)ccc12 (stereo not drawn) | 5.37 | 4.27 µM | 4.1 | 5.41 | 3.8 | 16.1 µM | 3.89 µM | – | – | – |
| CC(C)c1ccc(Cn2cc(COc3ccc4c5c(c(=O)oc4c3)CCCC5)nn2)cc1 | 4.66 | – | 1.6 | 4.63 | 1.7 | 37.7 µM | – | – | – | – |
| CC1(C)[C@H]2CC=C(Cn3cc(COc4ccc5c6c(c(=O)oc5c4)CCCC6)nn3)[C@@H]1C2 | 6.22 | – | 23.3 | 5.89 | 50 | 30.1 µM | – | Weak_effect | Weak_effect | – |
| CC(C)=CCC/C(C)=C/Cn1cc(COc2ccc3c(C)cc(=O)oc3c2)nn1 | 5.21 | 6.17 µM | 1.8 | 5.09 | 2.5 | 15 µM | 0.151 µM | – | – | – |
| CC1(C)[C@H]2CC=C(Cn3cc(COc4ccc5c(-c6ccccc6)cc(=O)oc5c4)nn3)[C@@H]1C2 | > 6.70 | – | 8.5 | 5.80 | > 88 | 13.7 µM | – | – | – | – |
| Cc1cc(=O)oc2cc(OCC3=CC[C@@H]4C[C@H]3C4(C)C)ccc12 | 5.89 | – | 24.7 | 5.33 | 90 | 116 µM | – | – | – | – |
| CC(C)=CCCC(C)=CCn1cc(COc2ccc3c4c(c(=O)oc3c2)CCC4)nn1 | 5.24 | 5.75 µM | 2.9 | 5.19 | 3.3 | 19.1 µM | 6.46 µM | – | – | – |
| CC(C)=CCC/C(C)=C/CCOc1ccc2c3c(c(=O)oc2c1)CCC3 | < 4.59 | – | 1.8 | – | < 1 | 26.6 µM | – | – | – | 4.82 |
| CC(C)c1ccc(Cn2cc(COc3ccc4c(-c5ccccc5)cc(=O)oc4c3)nn2)cc1 | 5.31 | – | 12.9 | 5.18 | 17 | 85.7 µM | – | – | – | – |
| CC1(C)[C@@H]2CC=C(COc3ccc4c5c(c(=O)oc4c3)CCC5)[C@H]1C2 | 5.39 | – | 81.6 | – | 100 | 416 µM | – | – | – | 5.29 |

| Structure (SMILES) | pIC50 (Human orthopneumovirus [1]) | IC50 (Human orthopneumovirus [1]) | selectivity ratio [2] | pIC50 (Human orthopneumovirus [3]) | selectivity ratio [4] | CC50 (HEp-2) | IC50 (Human orthopneumovirus [3]) | Activity (Human orthopneumovirus [5]) | Activity (Human orthopneumovirus [6]) | pEC50 (Human orthopneumovirus [3]) |
| --- | --- | --- | --- | --- | --- | --- | --- | --- | --- | --- |
| Cc1cc(=O)oc2cc(OCc3cn(CC4=CC[C@H]5C[C@@H]4C5(C)C)nn3)ccc12 | 5.19 | – | 2 | 5.15 | 2.2 | 14.3 µM | – | – | – | – |
| NC(=O)c1ncn([C@@H]2O[C@H](CO)[C@@H](O)[C@H]2O)n1 [RIBAVIRIN] | 4.51 | – | – | 4.26 | – | > 4100 µM | – | – | – | – |
| CC(C)=CCC/C(C)=C\Cn1cc(COc2ccc3c(C)cc(=O)oc3c2)nn1 | > 6.70 | 0.151 µM | 13.4 | 5.96 | > 96 | 14.7 µM | 1.1 µM | – | – | – |
| CC(C)c1ccc(Cn2cc(COc3ccc4c5c(c(=O)oc4c3)CCC5)nn2)cc1 | 4.66 | – | 1.5 | 4.59 | 1.8 | 38.5 µM | – | – | – | – |
| Cc1cc(=O)oc2cc(OCc3cn(CC4=CC[C@@H]5C[C@H]4C5(C)C)nn3)ccc12 | 5.18 | – | 2.9 | 5.12 | 3.3 | 22.2 µM | – | – | – | – |
| Cc1cc(=O)oc2cc(OCC3=CC[C@H]4C[C@@H]3C4(C)C)ccc12 | 4.54 | – | 3.3 | 3.62 | 27.4 | 796 µM | – | – | – | – |
| CC1(C)[C@H]2CC=C(COc3ccc4c5c(c(=O)oc4c3)CCC5)[C@@H]1C2 | < 4.89 | – | 0.9 | – | < 1 | 13.4 µM | – | – | – | < 4.89 |
| CC1(C)[C@@H]2CC=C(Cn3cc(COc4ccc5c6c(c(=O)oc5c4)CCC6)nn3)[C@H]1C2 | 5.16 | – | 7.3 | 5.14 | 7.6 | 52.7 µM | – | – | – | – |
| CC(C)=CCC/C(C)=C/CCOc1ccc2c(C)cc(=O)oc2c1 | 4.33 | – | 9.2 | 4.28 | 10.3 | 483 µM | – | – | – | – |
| CC(C)=CCCC(C)=CCn1cc(COc2ccc3c(-c4ccccc4)cc(=O)oc3c2)nn1 | 6.52 | 5.75 µM | 1.1 | 4.95 | 37 | 12.3 µM | 11.2 µM | – | – | – |
| CC(C)CCCC(C)CCn1cc(COc2ccc3c4c(c(=O)oc3c2)CCCC4)nn1 (stereo not drawn) | 5.43 | 3.72 µM | 4.9 | 5.35 | 6.1 | 22.2 µM | 4.47 µM | – | – | – |
| CC1(C)[C@H]2CC=C(COc3ccc4c5c(c(=O)oc4c3)CCCC5)[C@@H]1C2 | 3.97 | – | 5.5 | 4.22 | 3.5 | 334 µM | – | – | – | – |
| CC1(C)[C@H]2CC=C(Cn3cc(COc4ccc5c6c(c(=O)oc5c4)CCC6)nn3)[C@@H]1C2 | 3.20 | – | 1.1 | 3.59 | 0.4 | 278 µM | – | – | – | – |
| CC(C)=CCC/C(C)=C/CCOc1ccc2c3c(c(=O)oc2c1)CCCC3 | 6.24 | – | 85.2 | 6.22 | 90 | 51.1 µM | – | – | – | – |
| CC1(C)[C@@H]2CC=C(Cn3cc(COc4ccc5c(-c6ccccc6)cc(=O)oc5c4)nn3)[C@H]1C2 | 5.38 | – | 6.8 | 5.20 | 10 | 43.4 µM | – | – | – | – |
